Consider 21 molecules from patent USRE48842E1, “Pyrimido-pyrrolo-oxazine-dione compound inhibitors of the cystic fibrosis transmembrane conductance regulator protein and uses therefor” (The Regents of the University of California, priority 2011, dated 2021).

T1 sequence (P13569 whole entry): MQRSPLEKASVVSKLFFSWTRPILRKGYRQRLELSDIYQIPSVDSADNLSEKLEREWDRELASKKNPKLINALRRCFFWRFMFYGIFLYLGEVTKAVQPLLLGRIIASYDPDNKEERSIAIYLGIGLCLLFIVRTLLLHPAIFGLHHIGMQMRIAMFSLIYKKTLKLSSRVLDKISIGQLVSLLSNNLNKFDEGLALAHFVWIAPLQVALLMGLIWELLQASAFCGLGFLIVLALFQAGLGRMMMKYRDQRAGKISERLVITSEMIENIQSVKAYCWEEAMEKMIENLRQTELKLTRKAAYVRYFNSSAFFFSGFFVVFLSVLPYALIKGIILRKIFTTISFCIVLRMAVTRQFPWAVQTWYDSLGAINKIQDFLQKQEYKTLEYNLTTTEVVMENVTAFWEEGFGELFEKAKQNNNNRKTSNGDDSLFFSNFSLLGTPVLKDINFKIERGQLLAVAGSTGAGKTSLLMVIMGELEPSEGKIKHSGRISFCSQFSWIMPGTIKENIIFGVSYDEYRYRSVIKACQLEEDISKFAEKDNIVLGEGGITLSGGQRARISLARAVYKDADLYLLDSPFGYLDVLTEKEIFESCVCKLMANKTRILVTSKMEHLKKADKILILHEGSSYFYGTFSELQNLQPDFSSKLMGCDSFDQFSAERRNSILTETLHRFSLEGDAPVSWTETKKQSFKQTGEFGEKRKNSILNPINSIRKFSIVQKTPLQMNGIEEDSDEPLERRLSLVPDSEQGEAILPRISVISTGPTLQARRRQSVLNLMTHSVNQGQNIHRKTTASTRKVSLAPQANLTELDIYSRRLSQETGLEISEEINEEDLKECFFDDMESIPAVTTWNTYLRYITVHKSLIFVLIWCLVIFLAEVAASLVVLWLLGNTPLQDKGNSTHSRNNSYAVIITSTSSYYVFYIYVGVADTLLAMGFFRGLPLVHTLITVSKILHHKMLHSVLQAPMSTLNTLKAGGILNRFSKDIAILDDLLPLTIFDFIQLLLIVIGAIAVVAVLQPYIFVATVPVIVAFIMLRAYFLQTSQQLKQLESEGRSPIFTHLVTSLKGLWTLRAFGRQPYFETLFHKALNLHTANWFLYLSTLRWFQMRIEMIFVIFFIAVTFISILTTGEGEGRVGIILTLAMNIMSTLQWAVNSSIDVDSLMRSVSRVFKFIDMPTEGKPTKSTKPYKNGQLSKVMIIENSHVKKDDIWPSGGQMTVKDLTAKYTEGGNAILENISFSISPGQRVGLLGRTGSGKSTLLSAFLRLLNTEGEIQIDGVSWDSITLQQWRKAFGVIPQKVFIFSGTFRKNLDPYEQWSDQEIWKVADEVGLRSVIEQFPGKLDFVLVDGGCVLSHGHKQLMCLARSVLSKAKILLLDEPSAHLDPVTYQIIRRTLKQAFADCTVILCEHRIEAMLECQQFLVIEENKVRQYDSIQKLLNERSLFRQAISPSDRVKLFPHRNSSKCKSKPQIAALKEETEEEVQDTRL

The first assay addresses T1, human wildtype CFTR (Homo sapiens, UniProt P13569). In words: Short-circuit current analysis of CFTR inhibition in CFTR-expressing FRT cells. The class given is cell-based. On the set-up: expressed in transfected cells; host or cells: Fischer rat thyroid (FRT) epithelial cells on Snapwell inserts. As to conditions: Determined by short-circuit current assay; read-out: IC50 (μM)^B. Here is the method: Short-Circuit Current—Snapwell inserts containing CFTR-expressing FRT cells were mounted in an Ussing chamber. The hemichambers contained 5 mL of buffer containing 75 mM NaCl and 75 mM Na gluconate (apical) and 150 mM NaCl (basolateral) (pH 7.3), and the basolateral membrane was permeabilized with 250 μg/mL amphotericin B, as described (see, e.g., Sonawane et al., FASEB J 2006, supra). Short-circuit current was recorded continuously using a DVC-1000 voltage clamp (World Precision Instruments) using Ag/AgCl electrodes and 3 M KCl agar bridges.
Current was measured in CFTR-expressing FRT cells in which the basolateral membrane was permeabilized and in the presence of a transepithelial chloride concentration gradient, so that current is a quantitative linear measure of CFTR function. CFTR was activated by forskolin, followed by serial additions of increasing concentrations of test compounds.
CFTR inhibition potency was measured by short-circuit current analysis in FRT epithelial cells expressing human CFTR in presence of a transepithelial chloride gradient and in which the basolateral membrane was permeabilized with amphotericin B. Under these conditions short-circuit current is proportional to CFTR chloride conductance.
Broadly, the IC50 is the point on the concentration scale where inhibition reaches its midpoint. With `CCOC(=O)c1ccc2c(c1)-n1c(-c3ccccc3)c3c(=O)n(C)c(=O)n(C)c3c1C(c1ccc(Br)o1)O2` (racemic) [BPO-25, Ethyl 6-(5-Bromofuran-2-yl)-7,9-dimethyl-8,10-dioxo-11-phenyl-7,8,9,10-tetrahydro-6H-benzo[b]pyrimido[4′,5′:3,4]pyrrolo[1,2-d][1,4]oxazine-2-carboxylate], the IC50 was found to be 0.025 µM.

For another assay, the target named is T1, human wildtype CFTR. In words: Fluorescence plate reader assay of CFTR inhibition (iodide influx). The assay is classed as cell-based. Further details: expressed in transfected cells; host or cells: Fischer rat thyroid (FRT) cells.
Settings: not given
On the procedure:
Cell Culture and Plate Reader Assay of CFTR Inhibition—Fischer rat thyroid (FRT) cells co-expressing human wild type CFTR and the halide indicator YFP-H148Q were cultured in 96-well black-walled microplates (Corning Costar) at a density of 20,000 cells per well in Coon's modified F12 medium containing 10% fetal bovine serum, 2 mM L-glutamine, 100 U/mL penicillin and 100 μg/mL streptomycin. CFTR chloride conductance was assayed at 48 h after plating on a FluoStar fluorescence plate reader (BMG Lab Technologies) as described (see, e.g., Ma et al., J Clin Invest. 2002, supra). Each well was washed 3 times with PBS, leaving 60 μL PBS. Test compounds were added and incubated with the cells for 45 min. Then, 5 μL of a CFTR-activating cocktail (10 μM forskolin, 100 μM IBMX, 20 μM apigenin in PBS) was added. After 15 min, each well was assayed for iodide influx by recording fluorescence continuously (200 ms per point) for 2 s (baseline) and then for 10 s after rapid addition of 160 μL of isosmolar PBS in which 137 mM chloride was replaced by iodide. The initial rate of iodide influx was computed from fluorescence data by non-linear regression.
Initial testing of the compounds for the capability to inhibit CFTR was performed using a plate-reader assay in which iodide influx was measured in FRT cells co-expressing human wild type CFTR and the iodide-sensing yellow fluorescent protein YFP-H148Q/1152L. […] Table B below provides IC50 values for PPQ and BPO compounds.
The relative IC50 values obtained from the plate reader assay are useful for comparisons. Absolute IC50 values obtained from the plate-reader assay are approximate, generally underestimating compound potency because of assay non-linearities, pH-dependent YFP fluorescence, the use of iodide instead of chloride, and compound dilution at the start of the assay (see, e.g., Galietta et al., Am. J. Physiol. Cell Physiol. 281:C1734-42 (2001)).
Regarding `CCOC(=O)c1ccc2c(c1)-n1c(-c3ccccc3)c3c(=O)n(C)c(=O)n(C)c3c1C(c1ccc(Br)o1)O2` (racemic) [BPO-25, Ethyl 6-(5-Bromofuran-2-yl)-7,9-dimethyl-8,10-dioxo-11-phenyl-7,8,9,10-tetrahydro-6H-benzo[b]pyrimido[4′,5′:3,4]pyrrolo[1,2-d][1,4]oxazine-2-carboxylate], the “CFTR inhibition activity (in words)” value is given as “excellent CFTR inhibition activity”.
On to `Cc1ccc(C2c3c4c(c(-c5ccccc5)n3-c3ccccc3N2C)c(=O)n(C)c(=O)n4C)o1` (stereo not drawn) [PPQ-5, 5,7,9-Trimethyl-6-(5-methylfuran-2-yl)-11-phenyl-5,6-dihydropyrimido[4′,5′-3,4]pyrrolo[1,2-a]quinoxaline-8,10-(7H,9H)-dione], for which the “CFTR inhibition activity (in words)” value is “weakly active”.

Staying with this assay, now noted: Determined by micro-plate reader assay; FRT cells co-expressing human wild type CFTR and YFP-H148Q.
`CCOC(=O)c1ccc2c(c1)-n1c(-c3ccccc3)c3c(=O)n(C)c(=O)n(C)c3c1C(c1ccc(Br)o1)O2` (racemic) [BPO-25, Ethyl 6-(5-Bromofuran-2-yl)-7,9-dimethyl-8,10-dioxo-11-phenyl-7,8,9,10-tetrahydro-6H-benzo[b]pyrimido[4′,5′:3,4]pyrrolo[1,2-d][1,4]oxazine-2-carboxylate] showed an IC50 of 50 nM.
Molecule `Cn1c(=O)c2c(-c3ccccc3)n3c(c2n(C)c1=O)C(c1ccc(I)o1)Oc1ccccc1-3` (stereo not drawn) [BPO-17, 7,9-Dimethyl-6-(5-iodofuran-2-yl)-11-phenyl-6Hbenzo[b]pyrimido[4′,5′-3,4]pyrrolo[1,2-d]oxazine-8,10-(7H,9H)-dione] registered a concentration for half-maximal inhibition (IC50) of 500 nM.
As to `Cc1ccc(C2Oc3ccccc3-n3c(-c4ccccc4)c4c(=O)n(C)c(=O)n(C)c4c32)o1` (stereo not drawn) [BPO-18, 7,9-Dimethyl-6-(5-methylfuran-2-yl)-11-phenyl-6H-benzo[b]pyrimido[4′,5′-3,4]pyrrolo[1,2-d]oxazine-8,10-(7H,9H)-dione], the concentration for half-maximal inhibition (IC50) came to 150 nM.
On the same count and under the same terms, with `Cc1cccc(-c2c3c(=O)n(C)c(=O)n(C)c3c3n2-c2ccccc2OC3c2ccc(Cl)o2)c1` (stereo not drawn) [BPO-19, 6-(5-Chlorofuran-2-yl)-7,9-dimethyl-11-(m-tolyl)-6Hbenzo[b]pyrimido[4′,5′-3,4]pyrrolo[1,2-d]oxazine-8,10-(7H,9H)-dione] the figure was 370 nM.
Still for that read-out and setting: to `Cc1cccc(-c2c3c(=O)n(C)c(=O)n(C)c3c3n2-c2ccccc2OC3c2ccc(C)o2)c1` (stereo not drawn) [BPO-20, 7,9-Dimethyl-6-(5-methylfuran-2-yl)-11-(m-tolyl)-6H-benzo[b]pyrimido[4′,5′-3,4]pyrrolo[1,2-d]oxazine-8,10-(7H,9H)-dione] belongs 600 nM; to `Cc1ccc(C2Oc3cc([N+](=O)[O-])c(Cl)cc3-n3c(-c4ccccc4)c4c(=O)n(C)c(=O)n(C)c4c32)o1` (stereo not drawn) [BPO-24, 2-Chloro-7,9-Dimethyl-6-(5-methylfuran-2-yl)-3-nitro-11-phenyl-6H-benzo[b]pyrimido[4′,5′-3,4]pyrrolo[1,2-d]oxazine-8,10-(7H,9H)-dione], 170 nM.
On the same count and under the same terms, to `CCOC(=O)c1ccc2c(c1)-n1c(-c3ccccc3)c3c(=O)n(C)c(=O)n(C)c3c1C(c1ccc(C)o1)O2` (stereo not drawn) [BPO-26, Ethyl 7,9-Dimethyl-8,10-dioxo-6-(5-methylfuran-2-yl)-11-phenyl-7,8,9,10-tetrahydro-6H-benzo[b]pyrimido[4′,5′:3,4]pyrrolo[1,2-d][1,4]oxazine-2-carboxylate] belongs 80 nM.
For the molecule `Cc1ccc(C2c3c4c(c(-c5ccccc5)n3-c3ccccc3N2S(C)(=O)=O)c(=O)n(C)c(=O)n4C)o1` (stereo not drawn) [PPQ-1, 7,9-Dimethyl-6-(5-methylfuran-2-yl)-5-(methylsulfonyl)-11-phenyl-5,6-dihydropyrimido[4′,5′-3,4]pyrrolo[1,2-a]quinoxaline-8,10-(7H,9H)-dione], the “IC50 (μm)^A” value was “inactive”.
Same read-out and setting: to `Cc1ccc(C2c3c4c(c(-c5ccccc5)n3-c3ccccc3N2C(=O)CCl)c(=O)n(C)c(=O)n4C)o1` (stereo not drawn) [PPQ-2, 5-(2-Chloroacetyl)-7,9-dimethyl-6-(5-methylfuran-2-yl)-11-phenyl-5,6-dihydropyrimido[4′,5′-3,4]pyrrolo[1,2-a]quinoxaline-8,10-(7H,9H)-dione] belongs “inactive”; to `CC(=O)N1c2ccccc2-n2c(-c3ccccc3)c3c(=O)n(C)c(=O)n(C)c3c2C1c1ccc(C)o1` (stereo not drawn) [PPQ-3, 5-Acetyl-7,9-dimethyl-6-(5-methylfuran-2-yl)-11-phenyl-5,6. -dihydropyrimido[4′,5′-3,4]pyrrolo[1,2-a]quinoxaline-8,10-(7H,9H)-dione], “inactive”.
As for `Cc1ccc(C2c3c4c(c(-c5ccccc5)n3-c3ccccc3N2N=O)c(=O)n(C)c(=O)n4C)o1` (stereo not drawn) [PPQ-4, 7,9-Dimethyl-6-(5-methylfuran-2-yl)-5-nitroso-11-phenyl-5,6. -dihydropyrimido[4′,5′-3,4]pyrrolo[1,2-a]quinoxaline-8,10-(7H,9H)-dione], half-maximal inhibition (IC50) required 2000 nM.
Regarding `Cc1ccc(C2c3c4c(c(-c5ccccc5)n3-c3ccccc3N2C)c(=O)n(C)c(=O)n4C)o1` (stereo not drawn) [PPQ-5, 5,7,9-Trimethyl-6-(5-methylfuran-2-yl)-11-phenyl-5,6-dihydropyrimido[4′,5′-3,4]pyrrolo[1,2-a]quinoxaline-8,10-(7H,9H)-dione], the half-inhibitory concentration (IC50) was determined as 1000 nM.
For the molecule `CCc1ccc(C2Nc3ccccc3-n3c(-c4ccccc4)c4c(=O)n(C)c(=O)n(C)c4c32)o1` (stereo not drawn) [PPQ-6, 7,9-Dimethyl-6-(5-ethylfuran-2-yl)-11-phenyl-5,6-dihydropyrimido[4′,5′-3,4]pyrrolo[1,2-a]quinoxaline-8,10-(7H,9H)-dione], inhibition was half-maximal at 300 nM (IC50).
For `Cc1ccc(C2Nc3ccccc3-n3c(-c4ccccc4)c4c(=O)n(C)c(=O)n(C)c4c32)s1` (stereo not drawn) [PPQ-7, 7,9-Dimethyl-6-(5-methylthiophene-2-yl)-11-phenyl-5,6-dihydropyrimido[4′,5′-3,4]pyrrolo[1,2-a]quinoxaline-8,10-(7H,9H)-dione], the IC50 was 1700 nM.
In turn, `Cc1cc(C2Nc3ccccc3-n3c(-c4ccccc4)c4c(=O)n(C)c(=O)n(C)c4c32)oc1C` (stereo not drawn) [PPQ-8, 7,9-Dimethyl-6-(4,5-dimethylfuran-2-yl)-11-phenyl-5,6-dihydropyrimido[4′,5′-3,4]pyrrolo[1,2-a]quinoxaline-8,10-(7H,9H)-dione] had an IC50 of 1700 nM.
In the case of `Cn1c(=O)c2c(-c3ccccc3)n3c(c2n(C)c1=O)C(c1ccc(Cl)o1)Nc1ccccc1-3` (stereo not drawn) [PPQ-9, 6(5-Chlorofuran-2-yl)-7,9-dimethyl-11-phenyl-5,6-dihydropyrimido[4′,5′-3,4]pyrrolo[1,2-a]quinoxaline-8,10-(7H,9H)-dione], half-maximal inhibition (IC50) required 150 nM.
Turning to `Cn1c(=O)c2c(-c3ccccc3)n3c(c2n(C)c1=O)C(c1ccc(C(F)(F)F)o1)Nc1ccccc1-3` (stereo not drawn) [PPQ-12, 7,9-Dimethyl-11-phenyl-6-(5-trifluoromethylfuran-2-yl)-5,6-dihydropyrimido[4′,5′-3,4]pyrrolo[1,2-a]quinoxaline-8,10-(7H,9H)-dione], the IC50 worked out at 350 nM.
Turning to `Cn1c(=O)c2c(-c3ccccc3)n3c(c2n(C)c1=O)C(c1ccc(-c2ccccc2)o1)Nc1ccccc1-3` (stereo not drawn) [PPQ-13, 7,9-Dimethyl-11-phenyl-6-(5-phenylfuran-2-yl)-5,6-dihydropyrimido[4′,5′-3,4]pyrrolo[1,2-a]quinoxaline-8,10-(7H,9H)-dione], the “IC50 (μm)^A” value is “inactive”.
On the same count and under the same terms, to `Cn1c(=O)c2c(-c3ccccc3)n3c(c2n(C)c1=O)C(c1ccc(CO)o1)Nc1ccccc1-3` (stereo not drawn) [PPQ-14, 7,9-Dimethyl-11-phenyl-6-(5-hydroxymethylfuran-2-yl)-5,6-dihydropyrimido[4′,5′-3,4]pyrrolo[1,2-a]quinoxaline-8,10-(7H,9H)-dione] belongs “inactive”; to `Cn1c(=O)c2c(-c3ccccc3)n3c(c2n(C)c1=O)C(c1cc2ccccc2o1)Nc1ccccc1-3` (stereo not drawn) [PPQ-15, 6-(Benzofuran-2-yl)-7,9-dimethyl-11-phenyl-5,6-dihydropyrimido[4′,5′-3,4]pyrrolo[1,2-a]quinoxaline-8,10-(7H,9H)-dione], “inactive”.
Consider `Cn1c(=O)c2c(-c3ccccc3)n3c(c2n(C)c1=O)C(c1ccc(Br)o1)Nc1ccc([N+](=O)[O-])cc1-3` (stereo not drawn) [PPQ-23, 6-(5-Bromofuran-2-yl)-7,9-dimethyl-2-nitro-11-phenyl-5,6-dihydropyrimido[4′,5′-3,4]pyrrolo[1,2-a]quinoxaline-8,10-(7H,9H)-dione], for which inhibition was half-maximal at 170 nM (IC50).
